Laboratory results reported in PubChem BioAssay AID504685 (Sanford-Burnham Center for Chemical Genomics, 2011).
Calls of active or inactive are those of the source. The rule behind the calls is not given here.

These compounds were tested against Bcl-2-related protein A1 (Mus musculus) (UniProt Q07440) (assay: Bfl-1 counter-screen inhibitors, SAR follow-up, counter-screen for UBC13 polyubiquitination inhibitor project, biochemical, mouse Bfl-1 (AID 504685)). Conditions: Bfl-1 counterscreen for UBC13 inhibitors.

| IC50 | SMILES |
| --- | --- |
| > 100 µM (inactive) | O=C(CCCn1c(=O)c2ccccc2n(Cc2ccc(Cl)cc2)c1=O)NC1CCN(Cc2ccccc2)CC1 |
| > 100 µM (inactive) | O=C1c2cccc3cccc(c23)C(=O)N1CCN1CCN(CC(O)COCc2ccc(Cl)cc2)CC1 (stereo not drawn) |
| > 100 µM (inactive) | O=C1c2cccc3cccc(c23)C(=O)N1CCN1CCN(CC(O)COc2ccccc2)CC1 (stereo not drawn) |
| > 100 µM (inactive) | O=C1c2cccc3cccc(c23)C(=O)N1CCN1CCN(CC(O)COc2ccc(C3CCCCC3)cc2)CC1 (stereo not drawn) |
| > 100 µM (inactive) | O=C(CCCCCN1C(=O)c2ccccc2C1=O)NCc1ccccc1 |
| > 100 µM (inactive) | Cc1cc(NC(=O)Cn2c(=O)n(CCCCC(=O)NC3CCN(Cc4ccccc4)CC3)c(=O)c3ccccc32)n[nH]1 |
| 56.9 µM | COC(=O)c1ccc(OCC(O)CN2CCN(CCN3C(=O)c4cccc5cccc(c45)C3=O)CC2)cc1 (stereo not drawn) |
| > 100 µM (inactive) | CN1CCN(CCCNC(=O)c2ccc(/C=C3\Oc4ccccc4N(Cc4ccc(Cl)cc4)C3=O)cc2)CC1 |
| 97 µM | Cc1ccc(OCC(O)CN2CCN(CCN3C(=O)c4cccc5cccc(c45)C3=O)CC2)c(C)c1 (stereo not drawn) |
| > 100 µM (inactive) | Cc1cc(OCC(O)CN2CCN(CCN3C(=O)c4cccc5cccc(c45)C3=O)CC2)ccc1C(C)C (stereo not drawn) |
| 96.2 µM | O=C1c2cccc3cccc(c23)C(=O)N1CC1CCN(CC(O)COCc2ccc3c(c2)OCO3)CC1 (stereo not drawn) |
| 60.7 µM | CN(C)CCCN(C(=O)c1ccc(S(=O)(=O)N2CCc3ccccc3C2)cc1)c1nc2ccc(F)cc2s1 |
| > 100 µM (inactive) | O=C(CCCCCN1C(=O)c2ccccc2C1=O)Nc1nc(C2CC2)cs1 |
| > 100 µM (inactive) | O=C1c2cccc3cccc(c23)C(=O)N1CCN1CCN(CC(O)COc2ccc3ccccc3c2)CC1 (stereo not drawn) |
| > 100 µM (inactive) | CCOc1cccc2sc(N(CCCN(C)C)C(=O)c3ccc(S(=O)(=O)N4CCc5ccccc5C4)cc3)nc12 |
| > 100 µM (inactive) | O=C(CCCCCN1C(=O)c2cccc([N+](=O)[O-])c2C1=O)NCc1ccccc1 |
| > 100 µM (inactive) | COc1ccc2sc(N(CCCN(C)C)C(=O)c3ccc(S(=O)(=O)N4CCc5ccccc5C4)cc3)nc2c1 |
| > 100 µM (inactive) | NNC(=O)c1ccc(CN2C(=O)c3cccc4cccc2c34)cc1 |
| > 100 µM (inactive) | O=C(CCCCCN1C(=O)c2ccccc2C1=O)NCc1ccccn1 |
| > 100 µM (inactive) | CCOc1ccc(NC(=O)Cn2c(=O)n(CCCC(=O)NC3CCN(Cc4ccccc4)CC3)c(=O)c3ccccc32)cc1 |
| > 100 µM (inactive) | O=C(c1ccc(S(=O)(=O)N2CCCC2)cc1)N1CCC(CN2C(=O)c3cccc4cccc(c34)C2=O)CC1 |
| > 100 µM (inactive) | Cc1ccccc1OCC(O)CN1CCN(CCN2C(=O)c3cccc4cccc(c34)C2=O)CC1 (stereo not drawn) |
| > 100 µM (inactive) | O=C(CCCCn1c(=O)c2ccccc2n(Cc2ccccc2F)c1=O)NC1CCN(Cc2ccccc2)CC1 |
| > 100 µM (inactive) | COc1ccccc1NC(=S)NC(=O)CCCCCN1C(=O)c2ccccc2C1=O |
| > 100 µM (inactive) | COCCOC(=O)c1ccc(NC(=O)CCCCCN2C(=O)c3ccccc3C2=O)cc1 |

| IC50 | SMILES |
| --- | --- |
| 73.5 µM | CC(=O)c1ccc(OCC(O)CN2CCN(CCN3C(=O)c4cccc5cccc(c45)C3=O)CC2)cc1 (stereo not drawn) |
| > 100 µM (inactive) | COc1ccc(NC(=O)CCCCCN2C(=O)c3cccc([N+](=O)[O-])c3C2=O)cc1 |
| > 100 µM (inactive) | Cc1cc(C)cc(OCCNC(=O)CCCCCN2C(=O)c3ccccc3C2=O)c1 |
| 93.1 µM | CC(=O)c1ccccc1OCC(O)CN1CCN(CCN2C(=O)c3cccc4cccc(c34)C2=O)CC1 (stereo not drawn) |
| > 100 µM (inactive) | O=C(CCCCCN1C(=O)c2ccccc2C1=O)NCc1ccco1 |
| > 100 µM (inactive) | COc1cccc(NC(=O)CCCCCN2C(=O)c3cccc([N+](=O)[O-])c3C2=O)c1 |
| > 100 µM (inactive) | CCc1ccc(OCC(O)CN2CCC(CN3C(=O)c4cccc5cccc(c45)C3=O)CC2)cc1 (stereo not drawn) |
| > 100 µM (inactive) | Cc1cccc(OCC(O)CN2CCN(CCN3C(=O)c4cccc5cccc(c45)C3=O)CC2)c1C (stereo not drawn) |
| > 100 µM (inactive) | N#Cc1ccccc1Cn1c(=O)n(CCCC(=O)NC2CCN(Cc3ccccc3)CC2)c(=O)c2ccccc21 |
| > 100 µM (inactive) | Cc1ccc(C)c(OCC(O)CN2CCN(CCN3C(=O)c4cccc5cccc(c45)C3=O)CC2)c1 (stereo not drawn) |
| > 100 µM (inactive) | O=C(CCCCCN1C(=O)c2cccc3cccc(c23)C1=O)NCCO |
| > 100 µM (inactive) | COc1ccc(CCNC(=O)CCCCCN2C(=O)c3ccccc3C2=O)cc1OC |
| > 100 µM (inactive) | O=C(CCCCCN1C(=O)c2ccccc2C1=O)Nc1ccc(S(=O)(=O)Nc2ncccn2)cc1 |
| 24.1 µM | COc1cccc2sc(N(CCCN(C)C)C(=O)c3ccc(S(=O)(=O)N4CCc5ccccc5C4)cc3)nc12 |
| > 100 µM (inactive) | CC(NC(=O)CCCCCN1C(=O)c2ccccc2C1=O)c1nc(-c2ccccc2)no1 (stereo not drawn) |
| > 100 µM (inactive) | O=C(CCCn1c(=O)c2ccccc2n(Cc2ccccc2F)c1=O)NC1CCN(Cc2ccccc2)CC1 |
| > 100 µM (inactive) | CCOc1cccc2sc(N(CCCN(C)C)C(=O)c3ccc(S(=O)(=O)N(C)Cc4ccccc4)cc3)nc12 |
| > 100 µM (inactive) | CC(NC(=O)CCCCCN1C(=O)c2cccc([N+](=O)[O-])c2C1=O)c1ccccc1 (stereo not drawn) |
| > 100 µM (inactive) | Cc1ccccc1NC(=S)NC(=O)CCCCCN1C(=O)c2ccccc2C1=O |
| > 100 µM (inactive) | COc1ccc(COCC(O)CN2CCC(CN3C(=O)c4cccc5cccc(c45)C3=O)CC2)cc1OC (stereo not drawn) |
| > 100 µM (inactive) | Cc1nc2ccccc2c(=O)n1NC(=O)c1ccc(OC(F)F)cc1 |
| > 100 µM (inactive) | O=C(CCCn1c(=O)c2ccccc2n(Cc2cccc([N+](=O)[O-])c2)c1=O)NC1CCN(Cc2ccccc2)CC1 |
| > 100 µM (inactive) | CCCCOC(=O)c1cccc(NC(=O)CCCCCN2C(=O)c3ccccc3C2=O)c1 |
| > 100 µM (inactive) | C=CCc1ccccc1OCC(O)CN1CCN(CCN2C(=O)c3cccc4cccc(c34)C2=O)CC1 (stereo not drawn) |

Continued, compound first:

| SMILES | IC50 |
| --- | --- |
| O=C(NCCCN1CCN(c2ccc(F)cc2)CC1)C1CCCN(c2ncnc3c2nc2n3CCCCC2)C1 (stereo not drawn) | > 100 µM (inactive) |
| COc1cc2nc(N(CCCN(C)C)C(=O)c3ccc(S(=O)(=O)N4CCc5ccccc5C4)cc3)sc2cc1OC | 69.3 µM |
| CCCN1CCN(C(=O)C2CCN(c3ncnc4c3nc3n4CCCCC3)CC2)CC1 | > 100 µM (inactive) |
| O=C(C1CCN(c2ncnc3c2nc2n3CCCCC2)CC1)N1CCC(Cc2ccccc2)CC1 | > 100 µM (inactive) |
| O=C(C1CCN(c2ncnc3c2nc2n3CCCCC2)CC1)N1CCN(c2ccccn2)CC1 | > 100 µM (inactive) |
| Cc1ccc(C)c(CN2CCC(CNC(=O)C3CCCN(c4ncnc5c4nc4n5CCCCC4)C3)CC2)c1 (stereo not drawn) | > 100 µM (inactive) |
| CN(C)CCCN(C(=O)c1ccc(S(=O)(=O)N2CCCCCC2)cc1)c1nc2ccc(Br)cc2s1 | > 100 µM (inactive) |
| COc1cc(/C=C/c2cc[n+](C)cc2)ccc1OCC(=O)Nc1ccc(Cl)c(Cl)c1 | 55.3 µM |
| COc1ccc(-c2oc3ncnc(N)c3c2-c2ccccc2)cc1 | > 100 µM (inactive) |
| CCOc1cccc2sc(N(CCCN(C)C)C(=O)c3ccc(S(=O)(=O)N(CC)Cc4ccccc4)cc3)nc12 | 86.6 µM |
| CCOC(=O)c1c(NC(=O)COc2ccccc2C#N)sc2c1CC(C)(C)NC2(C)C | > 100 µM (inactive) |
| O=C(NCC1CCN(Cc2ccc(F)cc2)CC1)C1CCCN(c2ncnc3c2nc2n3CCCCC2)C1 (stereo not drawn) | > 100 µM (inactive) |
| Cc1ccccc1CN1CCC(CNC(=O)C2CCCN(c3ncnc4c3nc3n4CCCCC3)C2)CC1 (stereo not drawn) | > 100 µM (inactive) |
| O=C(NCCCN1CCN(c2ccccc2)CC1)C1CCCN(c2ncnc3c2nc2n3CCCCC2)C1 (stereo not drawn) | > 100 µM (inactive) |
| CCN(Cc1ccccc1)S(=O)(=O)c1ccc(C(=O)N(CCCN(C)C)c2nc3cc(C)cc(C)c3s2)cc1 | > 100 µM (inactive) |
| CN(C)CCCN(C(=O)c1ccc(C(=O)c2ccccc2)cc1)c1nc2cc3c(cc2s1)OCO3 | > 100 µM (inactive) |
| CC1CCCC(C)N1CCCNC(=O)C1CCCN(c2ncnc3c2nc2n3CCCCC2)C1 (stereo not drawn) | > 100 µM (inactive) |

| SMILES | IC50 |
| --- | --- |
| CN(C)CCCN(C(=O)c1ccc(S(=O)(=O)N2CCCC2)cc1)c1nc2ccc(Br)cc2s1 | > 100 µM (inactive) |
| O=C(C1CCN(c2ncnc3c2nc2n3CCCCC2)CC1)N1CCOCC1 | > 100 µM (inactive) |
| CN(C)CCCN(C(=O)c1ccc(S(=O)(=O)N(C)Cc2ccccc2)cc1)c1nc2cc3c(cc2s1)OCO3 | 81 µM |
| O=C(C1CCN(c2ncnc3c2nc2n3CCCCC2)CC1)N1CCN(Cc2ccccc2)CC1 | > 100 µM (inactive) |
| CN(C)CCCN(C(=O)c1ccc2c(c1)CCCC2)c1nc2ccc(Cl)cc2s1 | > 100 µM (inactive) |
| CCC1CCCCN1CCCNC(=O)C1CCN(c2ncnc3c2nc2n3CCCCC2)CC1 (stereo not drawn) | > 100 µM (inactive) |
| Cc1ccc(-c2oc3ncnc(N)c3c2-c2ccc(C)cc2)cc1 | > 100 µM (inactive) |
| CCN(Cc1ccccc1)S(=O)(=O)c1ccc(C(=O)N(CCCN(C)C)c2nc3cc4c(cc3s2)OCO4)cc1 | 57 µM |
| Cc1ccc(NC(=O)C2CCN(c3ncnc4c3nc3n4CCCCC3)CC2)cc1Cl | > 100 µM (inactive) |
| O=C(c1ccco1)N1CCN(C(=O)C2CCN(c3ncnc4c3nc3n4CCCCC3)CC2)CC1 | > 100 µM (inactive) |
| COc1ccc2sc(N(CCCN(C)C)C(=O)c3ccc(S(=O)(=O)N(C)Cc4ccccc4)cc3)nc2c1 | 79.4 µM |
| CC1CCCCN1C(=O)C1CCN(c2ncnc3c2nc2n3CCCCC2)CC1 (stereo not drawn) | > 100 µM (inactive) |
| CC1(C)Cc2c(sc(NC(=O)COc3ccc(Cl)cc3Cl)c2C(N)=O)C(C)(C)N1 | > 100 µM (inactive) |
| O=C(NCC1CCN(Cc2ccccc2F)CC1)C1CCCN(c2ncnc3c2nc2n3CCCCC2)C1 (stereo not drawn) | > 100 µM (inactive) |
| CCOc1ccc2nc(N(CCCN(C)C)C(=O)c3ccc(C(=O)c4ccccc4)cc3)sc2c1 | > 100 µM (inactive) |
| COc1ccc(C)c2sc(N(CCCN(C)C)C(=O)c3ccc(S(=O)(=O)N(C)C)cc3)nc12 | > 100 µM (inactive) |
| Cc1cc(C)c2sc(N(CCCN(C)C)C(=O)c3ccc(S(=O)(=O)N4CCc5ccccc5C4)cc3)nc2c1 | > 100 µM (inactive) |
